Experimental data: PubChem BioAssay AID1959 (Broad Institute, 2009)
Calls of active or inactive are those of the source.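 The calls were made as follows: active = growth-inhibition EC50 no more than tenfold above the top tested dose; inconclusive = flat fit between 30% and 70% inhibition, or unreliable fit; inactive = EC50 more than tenfold above the top tested dose.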

System: E. coli NEB5alpha growth, BacTiter-Glo luminescence, 4 h
Experiment: antibacterial activity against E. coli NEB5alpha – luminescence, counter-screen for MEX-5/POS-1 RNA-binding inhibitor project, dose response (AID 1959);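 also: pUC19-transformed ampicillin-resistant cells grown in LB with ampicillin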

SMILES | EC50
CCOC(=O)c1c(/N=C/C2C(=O)NC(=S)NC2=O)sc(C)c1C | > 11 µM (inactive)
CCCNS(=O)(=O)c1ccc(CCC(=O)NCc2ccc3c(c2)OCO3)cc1 | > 11 µM (inactive)
O=C1CSC(=S)N1N1C(=O)c2cccc([N+](=O)[O-])c2C1=O | > 11 µM (inactive)
Cc1ccc(S(=O)(=O)c2cc3c(=O)n4ccccc4nc3n(CCc3ccccc3)c2=N)cc1 | > 11 µM (inactive)
CSCC(C)N1CCC(Oc2cccc(C(=O)NCc3ccccn3)c2)CC1 (stereo not drawn) | > 11 µM (inactive)
NC1=NC(=O)/C(=C/c2ccc(-c3ccc(S(N)(=O)=O)cc3)o2)S1 | > 11 µM (inactive)
COc1ccc(N=Cc2c(O)c3ccccc3n2C(C)=O)cc1 | > 11 µM (inactive)
O=C(N/N=C/c1c(O)n(CCc2ccccc2)c(=O)[nH]c1=O)c1ccccc1 | > 11 µM (inactive)
O=C1c2ccccc2-c2onc3ccc(NCc4ccco4)c1c23 | > 11 µM (inactive)
C#CCOCCOCCOCCNc1nc(N2CCN(C(=O)[C@H]([C@@H](C)CC)n3cc([C@@H](N)CO)nn3)CC2)nc(N2CCN(C(=O)[C@H]([C@@H](C)CC)n3cc([C@@H](N)CC(C)C)nn3)CC2)n1 | > 11 µM (inactive)
Cc1c(C(=O)O)cccc1-n1c(C)cc(/C=N/Nc2ccc([N+](=O)[O-])cn2)c1C | > 11 µM (inactive)
CCC(=O)OC1(C)C(=O)C=C2C=C(CCCCNC(=O)OC(C)(C)C)OC=C2C1=O (stereo not drawn) | > 11 µM (inactive)
COc1ccc(/C=C(\C#N)C(=O)NCC2CCCO2)cc1OC (stereo not drawn) | > 11 µM (inactive)
CCOCCCn1c(=NC(=O)c2cccs2)c(C#N)cc2c(=O)n3ccccc3nc21 | > 11 µM (inactive)
COC(=O)c1c(NC(=O)CC2Nc3ccccc3NC2=O)sc(C)c1C (stereo not drawn) | > 11 µM (inactive)
CCOC(=O)c1cc2c(=O)n3ccccc3nc2n(C(C)C)c1=NC(=O)c1ccncc1 | > 11 µM (inactive)
COc1ccc2c(-c3ccccc3)cc(SCC(N)=O)nc2c1 | > 11 µM (inactive)
O=C(N/N=C/c1c(O)ccc2ccccc12)Nc1ccccc1 | > 11 µM (inactive)
COc1ccc(C2C(C#N)=C(N)OC3=C2C(=O)CC(C)(C)C3)c([N+](=O)[O-])c1OC (stereo not drawn) | > 11 µM (inactive)
CCOc1ccc(N2C(=O)/C(=C/c3ccc(C)o3)C(=O)NC2=S)cc1 | > 11 µM (inactive)
COC(=O)Cn1cc(C=C2C(=O)N(C)C(=O)N(C)C2=O)c2ccccc21 | > 11 µM (inactive)
CCOC(=O)/C(C#N)=C/c1cc2ccccc2nc1N1CCCCC1 | > 11 µM (inactive)
N#Cc1c(N)n(-c2cccc(C(=O)O)c2)c2nc3ccccc3nc12 | > 11 µM (inactive)
CCOc1cc2c(cc1/C=C(/C#N)c1ccc(C(=O)O)cc1)OCO2 | > 11 µM (inactive)

SMILES | EC50
Cc1c(C(=O)O)cccc1-n1c(C)cc(/C=C2\C(=O)NC(=O)N(c3ccc4c(c3)OCO4)C2=O)c1C | > 11 µM (inactive)
COc1ccc(P2(=O)Nc3ccccc3N2)cc1 | > 11 µM (inactive)
CCc1cc(C(=O)Nc2ccc(OC)nc2)sc1C | > 11 µM (inactive)
CC(C)(O)[C@H]1O[C@H]2CC[C@@]3(C)[C@@](O)(CC[C@H]4Cc5c([nH]c6ccccc56)[C@@]43C)C2=CC1=O | > 11 µM (inactive)
Cc1cccc(Oc2nc(-c3ccccn3)nc3ccccc23)c1 | > 11 µM (inactive)
CCn1c(/C=C/c2c(C)[nH]c3ccccc23)nc2ccccc2c1=O | > 11 µM (inactive)
CC1=C(C#N)C(=O)NC(=O)/C1=C/c1ccc(-c2ccc(S(N)(=O)=O)cc2)o1 | > 11 µM (inactive)
O=C(c1ccc(F)cc1)N1CCN(C2CCC(c3ccccc3)CC2)CC1 (stereo not drawn) | > 11 µM (inactive)
COc1cccc(N2C(=O)NC(=O)/C(=C/c3ccc4c(c3)Cc3ccccc3-4)C2=O)c1 | > 11 µM (inactive)
O=C(N=c1ccn(-c2nc3ccccc3nc2NS(=O)(=O)c2ccccc2)cc1)c1ccccc1Cl | > 11 µM (inactive)
C=CCN1C(=O)NC(=O)/C(=C/c2c(CCN(C)C(=O)c3ccccc3)cc3c(c2OC)OCO3)C1=O | > 11 µM (inactive)
COc1ccc(-n2nc3c(=O)[nH][nH]c3cc2=O)cc1 | > 11 µM (inactive)
CCN1C(=O)/C(=C\N(C)C)NC1=S | > 11 µM (inactive)
COc1ccc2c(c1)c1nc3ccccc3nc1n2CCCN1C(=O)c2ccccc2C1=O | > 11 µM (inactive)
O=C(NNC(=O)c1cc(Cl)ccc1[N+](=O)[O-])c1csc(N2CCOCC2)n1 | > 11 µM (inactive)
CC(C)CNC(=O)C1Nc2ccc(C(F)(F)F)cc2C2C=CCC12 (stereo not drawn) | > 11 µM (inactive)
CCCSc1nnc2nc3c(nn12)c1ccccc1n3C | > 11 µM (inactive)
COC(=O)CCCC1=CC2=CC(=O)C(C)(OC(=O)CCc3ccccc3)C(=O)C2=CO1 (stereo not drawn) | > 11 µM (inactive)
Cc1nc(-c2ccc(O)c(O)c2)cs1 | > 11 µM (inactive)
Cc1cc(C)cc(N2C(=O)NC(=O)/C(=C\c3cc(C)n(C)c3C)C2=O)c1 | > 11 µM (inactive)
Cc1ccc(/C=C2\Oc3c(ccc(O)c3CN3CCN(C)CC3)C2=O)cc1 | > 11 µM (inactive)
CCN(CC)c1ccc(/C=C2\C(=O)NC(=S)N(C)C2=O)o1 | > 11 µM (inactive)
CC(C)C(C(=O)O)N1C(=O)/C(=C/C=C/c2ccco2)SC1=S (stereo not drawn) | > 11 µM (inactive)
O=C(O)c1cccc(-n2cccc2/C=N/O)c1 | > 11 µM (inactive)

SMILES | EC50
O=C(O)c1[nH]c2ccccc2c1C(c1cc(Cl)cc([N+](=O)[O-])c1O)c1c(C(=O)O)[nH]c2ccccc12 | > 11 µM (inactive)
CCOc1cc(C(c2c(C)[nH][nH]c2=O)c2c(C)[nH][nH]c2=O)cc([N+](=O)[O-])c1O | > 11 µM (inactive)
NC(N)=NS(=O)(=O)c1ccc(NC(=S)NC(=O)/C=C/c2cccs2)cc1 | > 11 µM (inactive)
Cc1ccc(NC(=O)CN2C(=O)S/C(=C\c3cccn3-c3cccc(C(=O)O)c3)C2=O)cc1C | > 11 µM (inactive)
CN1CCCc2cc3c(C(F)(F)F)cc(=O)oc3nc21 | > 11 µM (inactive)
Cc1c(NC(=O)c2coc(=O)c(Br)c2)c(=O)n(-c2ccccc2)n1C | > 11 µM (inactive)
Cn1c(=O)c2[nH]c(N=NNc3ccccc3F)nc2n(C)c1=O | > 11 µM (inactive)
CCN(CC)c1ccc2cc(C#N)c(=O)oc2c1 | > 11 µM (inactive)
COC(=O)c1ccc(C)c(-n2c(C)cc(C=O)c2C)c1 | > 11 µM (inactive)
Cc1cc(/C=C2\C(=O)NC(=O)N(c3ccc(Br)cc3)C2=O)c(C)n1-c1cc(C(=O)O)cc(C(=O)O)c1 | > 11 µM (inactive)
O=C(CC1Nc2ccccc2NC1=O)Nc1cc(Cl)cc(Cl)c1 (stereo not drawn) | > 11 µM (inactive)
COc1cc(C2C(C#N)=C(N)OC3=C2C(=O)CC(C)(C)C3)cc([N+](=O)[O-])c1O (stereo not drawn) | > 11 µM (inactive)
COc1ccc(/C=C/c2cc(C(F)(F)F)[nH]c(=O)n2)cc1OC | > 11 µM (inactive)
O=C1NC(=S)N(c2ccc(F)cc2)C(=O)/C1=C/c1ccco1 | > 11 µM (inactive)
Cc1cnc(C(=O)NNC(=O)c2ccc(Br)cc2)cn1 | > 11 µM (inactive)
COc1ccc(/C=C/C(=O)c2c(C)cc(C)[nH]c2=O)c2ccccc12 | > 11 µM (inactive)
CC1(OC(=O)CCc2ccccc2)C(=O)C=C2C=C(c3ccsc3)OC=C2C1=O (stereo not drawn) | > 11 µM (inactive)
CCOc1cc(/C=C2\C(=N)N3N=C(S(C)(=O)=O)SC3=NC2=O)ccc1OCCOc1cccc(OC)c1 | > 11 µM (inactive)
COc1ccc(N=C(C)c2sc3ccccc3c2O)cc1 | > 11 µM (inactive)
O=C1/C(=C/c2ccc(Br)cc2)Oc2cc(O)ccc21 | > 11 µM (inactive)
COc1cc(C2C(C#N)=C(N)Oc3n[nH]c(-c4cccnc4)c32)cc(Br)c1O (stereo not drawn) | > 11 µM (inactive)
CCOC(=O)[C@]1(C#N)[C@@H]2C=CC(C(C)=O)=CN2[C@@H](C(N)=O)[C@@H]1c1ccsc1 | > 11 µM (inactive)
CCCCCN1C=CC=C/C1=C\C=C(C#N)C#N | > 11 µM (inactive)
COc1ccc(C2C(C#N)=C(/N=C/N3CCN(C)CC3)OC3=C2C(=O)CC(C)(C)C3)cc1OC (stereo not drawn) | > 11 µM (inactive)

SMILES | EC50
COC(=O)CNC(=O)C1Nc2ccc(OC(F)(F)F)cc2C2C=CCC12 (stereo not drawn) | > 11 µM (inactive)
CC1(C)CCCN(C(=O)c2coc(=O)c(Br)c2)C1 | > 11 µM (inactive)
COc1ccc(C(=O)NNC(=O)c2cnccn2)cc1[N+](=O)[O-] | > 11 µM (inactive)
COc1cc(/C=C2/C(=O)NN(c3cccc(C)c3)C2=O)cc([N+](=O)[O-])c1O | > 11 µM (inactive)
C=CCOn1c(=O)c(-c2cc3ccccc3o2)[n+]([O-])c2ccccc21 | > 11 µM (inactive)
CN1Cc2c(c(C#N)c(N)n(C)c2=S)CC1(C)C | > 11 µM (inactive)
CCOC(=O)c1c[nH]c2nc(C)ccc2c1=O | > 11 µM (inactive)
CC1(OC(=O)c2ccco2)C(=O)C=C2C=C(C3CC3)OC=C2C1=O (stereo not drawn) | > 11 µM (inactive)
Cn1c(O)c(C=Nc2ccc(N3CCOCC3)cc2)c(=O)n(C)c1=S | > 11 µM (inactive)
COc1ccc(C2C(C#N)=C(N)OC3=C2C(=O)CC(C)(C)C3)c(OC)c1OC (stereo not drawn) | > 11 µM (inactive)
N=C1c2ccccc2CN1NC(=O)CC12CC3CC(CC(C3)C1)C2 | > 11 µM (inactive)
CC1(C)CC(=O)C2=C(C1)OC(/N=C/N1CCCC1)=C(C#N)C2c1ccccc1 (stereo not drawn) | > 11 µM (inactive)
COC(=O)[C@H](CCSC)NC(=O)NC1CCN(Cc2ccccc2)CC1 | > 11 µM (inactive)
Oc1ccc(-c2nc(-c3ccc(O)c(O)c3)cs2)cc1 | > 11 µM (inactive)
CCN1C(=O)/C(=C2\SC(=S)N(NC(=O)c3ccccc3O)C2=O)c2ccccc21 | > 11 µM (inactive)
COc1ccc(Nc2nc3ccccc3nc2NS(=O)(=O)c2cccs2)cc1 | > 11 µM (inactive)
O=c1[nH]c(CN2CCc3ccccc3C2)nc2ccccc12 | > 11 µM (inactive)
C=CCn1cc(C=C2C(=O)NC(=O)NC2=O)c2ccccc21 | > 11 µM (inactive)
COC(=O)C1=COC(C)C2CN3CCc4c([nH]c5cc(OC)c(OC)cc45)C3CC12 (stereo not drawn) | > 11 µM (inactive)
NC(=O)c1snnc1-c1ccccc1 | > 11 µM (inactive)
Cc1ccc2nc3c(cc(C(=O)NCC4CCCO4)c(=N)n3C3CCCC3)c(=O)n2c1 (stereo not drawn) | > 11 µM (inactive)
